From patent US20160243142A1, “AVICIN D FOR TREATMENT OF MANTLE CELL LYMPHOMA” (Research Development Foundation, priority 2015, published 2016)
Entries after “also recorded” stand apart in the source; their conditions may differ.

Columns and labels:
[1] = Toxicity / body weight in Mino xenograft bearing NODscid mice; assay type: in vivo; details: for tolerability of dosing protocols: 0.5, 1.0 and 1.0-2.0 mg/kg s.c. daily; for animals removed from the study due to drug toxicity / treatment related deaths (TR): Group 5: escalating 1.0-2.0 mg/kg s.c., N = 10
Protocol: (§1) Animals were treated according to Table 3 below. Animals were dosed in the opposite flank opposing the tumors at 10 mL/kg. Daily clinical observations were made and body weights and tumor measurements were performed thrice weekly. Animals were maintained on study until their tumor burden reached the study endpoint of 2000 mm^3. Animals were euthanized at the study endpoint with terminal cardiocentesis performed for serum collection and plasma preparation in K2EDTA. Tumors were excised and fixed in 10% formalin.
Non-treatment related deaths (NTR), non-treatment metastatic related deaths (NTRm), and treatment related deaths (TR) were monitored. Animal body weight was monitored three times weekly throughout the study and mean % body weight loss was calculated and plotted with GraphPad Prism 5.0. Animals displaying >20% body weight loss were to be euthanized and recorded as TRs.

[2] = system: Mino mantle cell lymphoma xenograft; test: Tumor growth delay in Mino mantle cell lymphoma xenograft bearing NODscid mice; assay type: in vivo; details: for PR (partial response): N = 10; for Log10 cell kill (750 mm^3): activity threshold 0.7
From the text: 80 NOD .CB17 -Prkdcscid/J (NOD scid) (JAX, West Sacramento, Calif.) 4-6 week old female mice were transferred to the in vivo research laboratory in West Sacramento, CA. The mice were ear notched for identification and housed in individually and positively ventilated polycarbonate cages with HEPA filtered air at a density of five mice per cage. Bed-o'cobs® bedding was used and cages were changed every two weeks. The animal room was illuminated entirely with artificial fluorescent lighting, with a controlled 12 h light/dark cycle (7 am to 7 pm light). The normal temperature and relative humidity ranges in the animal rooms were 22±4° C. and 50±15%, respectively. The animal rooms were set to have 15 air exchanges per hour. Filtered tap water, acidified to a pH of 2.8 to 3.1, and LabDiet 5LL4 were provided ad libitum.
Mino Mantle Cell Lymphoma cells (ATCC catalogue #CRL-3000™, Manassas, Va.) were maintained in RPMI 1640 with 2 mM 1-glutamine, 25 mM HEPES, 4.5 g/L D-glucose (Invitrogen, San Diego, Calif.) supplemented with 10% ES cell certified fetal bovine serum (Hyclone, Logan, Utah). The cells were suspended at 1×10^8 cells/ml in serum free media, and 80 mice were subcutaneously injected in the rear right flanks with 10^7 cells in 100 μL. Tumor volumes were monitored with ULTRA-Cal IV digital calipers (Fowler, Newton, Mass.), and 50 animals were tumor size rank matched into five cohorts of 10 animals with mean tumor volumes of approximately 150 mm^3.
as §1
Animals were euthanized when the tumors had reached the 2000 mm^3 study endpoint, and the tumors were harvested, weighed, and placed in 10% formalin. Table 4 summarizes the clinical observation schedule and the body weight and tumor measurement schedule performed.
Tumor volumes were calculated from digital caliper raw data by using the formula: […]
The value w (width) was the smaller of two perpendicular tumor axes and the value l (length) was the larger of two perpendicular axes.
The tumor growth delay (TGD) method was used to analyze drug treatment effects on time (days) to tumor endpoint (TTE) for Mino tumor response. The tumor endpoint volume for TTE analysis was set at 2000 mm^3 and TTE was defined in days by the formula: […]
The value for b was the (y) intercept and m was the slope of the line calculated from a linear regression of log-transformed tumor growth data for each tumor calculated from a minimum of three time points preceding 2000 mm^3 and a minimum of one that surpassed the time point for 2000 mm^3. Treatment initiated when tumors reached approximately 150 mm^3, and animals were drugged according to Table 3. Tumors were monitored until animals were euthanized due to tumors reaching a 2000 mm^3 endpoint, and the study was concluded on day 59 post drug treatment initiation.
Treatment efficacy was determined by comparing TTE values calculated for each treatment group and by calculating percent tumor growth delay for each treatment group:
T represented the median TTE in days for a drug treatment group and C represented the median TTE in days for the control group. Statistical significance for median TTE values for treatment group comparisons was determined by the Log-rank test with GraphPad Prism 5.0 software (GraphPad, La Jolla, Calif.). A 95% confidence value was used for two-tailed statistical analyses. Log-rank survival curves were plotted based on survival to 2000 mm3 to visualize the statistical significance of the median TTE values between treatment groups. […]

[3] = approved dose; alternative treatment 1.9 months; cited from earlier work
[4] = Group 1 vs. Group 3: vehicle control vs. 0.5 mg/kg s.c.
[5] = Group 1 vs. Group 4: vehicle control vs. 1.0 mg/kg s.c.
[6] = Group 1 vs. Group 5: vehicle control vs. 1.0-2.0 mg/kg s.c.
[7] = Group 3: 0.5 mg/kg s.c. daily days 1-33
[8] = Group 3 vs. Group 4: 0.5 mg/kg vs. 1.0 mg/kg s.c.
[9] = Group 3 vs. Group 5: 0.5 mg/kg vs. 1.0-2.0 mg/kg s.c.
[10] = Group 4: 1.0 mg/kg s.c. daily days 1-2, 5-33
[11] = Group 4 vs. Group 5: 1.0 mg/kg vs. 1.0-2.0 mg/kg s.c.
[12] = Group 5: escalating 1.0-2.0 mg/kg s.c. daily days 1-2, 5-33
[13] = 3.3 mg/kg i.v. days 1 and 8 (Group 2)

C=CC(C)(O)CC/C=C(\CO)C(=O)O[C@@H]1C(C)O[C@@H](O[C@](C)(C=C)CC/C=C(\CO)C(=O)O[C@H]2C[C@@]3(C(=O)O[C@@H]4OC(CO)[C@@H](O)C(O)C4O[C@@H]4OC(C)[C@H](O[C@@H]5O[C@@H](CO)C(O)[C@@H]5O)C(O[C@@H]5OC(CO)[C@@H](O)C(O)C5O)C4O)C(CC2(C)C)C2=CCC4[C@@]5(C)CC[C@H](O[C@@H]6OC(CO[C@@H]7OC(C)[C@H](O)C(O)C7O[C@@H]7OC[C@@H](O)C(O)C7O)[C@@H](O)C(O)C6NC(C)=O)C(C)(C)C5CC[C@@]4(C)[C@]2(C)C[C@H]3O)C(O)C1O (some centres unmarked) [AVD-001]
nadir mean % body weight change ([1]; 0.5 mg/kg dose cohort, day 2): −4.43% | nadir mean % body weight change ([1]; 1.0 mg/kg dose cohort, day 3): −11.82% | tolerability of dosing protocols [1]: generally well-tolerated | tolerability of dosing protocols ([1]; listed as Avicin): generally well tolerated | body weight loss ([1]; Group 3 (0.5 mg/kg s.c.), peaked at day 2): 4% | animals removed from the study due to drug toxicity / treatment related deaths (TR) [1]: Two | animals removed from the study due to drug toxicity / treatment related deaths (TR) ([1]; listed as Avicin): two and Two | transient body weight loss ([1]; Groups 4 and 5 (1.0 and 1.0-2.0 mg/kg s.c.), dosing suspended days 3 and 4): 10% | nadir average % body weight change ([1]; escalating dose 1.0-2.0 cohort, day 3): −10.42% | injection site findings ([1]; several Group 3, 4 and 5 mice, s.c.): irritation and/or bleeding at the injection site | Hazard Ratio [2, 4]: 3.159 | Median survival Ratio (control/treated) [2, 4]: 0.7412 | Hazard Ratio [2, 5]: 3.492 | Median survival Ratio (control/treated) [2, 5]: 0.6941 | Hazard Ratio [2, 6]: 10.36 | Median survival Ratio (control/treated) [2, 6]: 0.5675 | Median Survival (to 2000 mm^3) ([2]; Group 3: 0.5 mg/kg s.c.): 29.2 days | % TGD (tumor growth delay) [2, 7]: 34.9% | Median TTE (time to tumor endpoint, 2000 mm^3) [2, 7]: 29.2 days | PR (partial response) ([2]; Group 3: 0.5 mg/kg s.c.): 3 | Log10 cell kill (750 mm^3) ([2]; Group 3: 0.5 mg/kg s.c.): 0.57 | Hazard Ratio [2, 8]: 1.588 | Median survival Ratio [2, 8]: 0.9365 | Hazard Ratio [2, 9]: 5.491 | Median survival Ratio [2, 9]: 0.7657 | Median Survival (to 2000 mm^3) ([2]; Group 4: 1.0 mg/kg s.c.): 31.18 days | % TGD (tumor growth delay) [2, 10]: 44.1% | Median TTE (time to tumor endpoint, 2000 mm^3) [2, 10]: 31.2 days | PR (partial response) ([2]; Group 4: 1.0 mg/kg s.c.): 4 | Log10 cell kill (750 mm^3) ([2]; Group 4: 1.0 mg/kg s.c.): 0.45 | Hazard Ratio [2, 11]: 1.674 | Median survival Ratio [2, 11]: 0.8177 | Median Survival (to 2000 mm^3) ([2]; Group 5: 1.0-2.0 mg/kg s.c.): 38.14 days | PR (partial response) ([2]; Group 5: 1.0 to 2.0 mg/kg s.c.): 6 | Log10 cell kill (750 mm^3) ([2]; Group 5: 1.0 to 2.0 mg/kg s.c.): 0.89 | % TGD (tumor growth delay) [2, 12]: 76.2% | Median TTE (time to tumor endpoint, 2000 mm^3) [2, 12]: 38.1 days

COc1cccc2c1C(=O)c1c(O)c3c(c(O)c1C2=O)C[C@@](O)(C(=O)CO)C[C@@H]3O[C@H]1C[C@H](N)[C@H](O)[C@H](C)O1 [Adriamycin, doxorubicin, reference compound]
day by which animals were removed from study [1, 13]: ≤ 16 days | toxicity of positive control [1, 13]: significant body weight loss; also recorded: severe toxicity | toxicity of positive control ([1]; 3.3 mg/kg i.v. days 1 and 8 (Group 2), listed as adriamycin): significant treatment-related body weight loss

CO[C@H]1C[C@@H]2CC[C@@H](C)[C@@](O)(O2)C(=O)C(=O)N2CCCC[C@H]2C(=O)O[C@H]([C@H](C)C[C@@H]2CC[C@@H](OC(=O)C(C)(CO)CO)[C@H](OC)C2)CC(=O)[C@H](C)/C=C(\C)[C@@H](O)[C@@H](OC)C(=O)[C@H](C)C[C@H](C)/C=C/C=C/C=C/1C [Torisel, temsirolimus]
average time lived without disease getting worse [3]: 4.8 months
